Test results taken from patent US11975003B2, “Methods and compositions for treatment of Zika virus infection” (priority 2016, dated 2024).

Experiments:
[1] = test system: Zika virus Puerto Rico PRVABC59; assay: CPE reduction assay (neutral red uptake); format: cell-based; settings: Puerto Rico PRVABC59
Procedure: (§1) The compounds were administered at a range of concentrations up to 100 μg/ml. Compounds were prepared in MEM just prior to testing. Inhibition of virus replication was determined by microscopic examination of the infected cells for cytopathic effect, increase of neutral red (NR) dye uptake (colorimetric determination), and virus yield reduction. Uninfected cells treated with a compound were assayed as above for cytotoxicity control. The EC50, EC90 and SI (selectivity index) values were determined in Vero76, Huh7 and RD cells as analyzed by the neutral red uptake dye assay and virus yield reduction assays. The results are presented from 3 or more independent experiments (standard deviations not shown. Three Zika virus strains were used in this in vitro study, Malaysia strain P 6-740, Uganda strain MR-766 and Puerto Rico strain PRVABC-59. Cells were maintained under standard conditions.

Zika virus Uganda MR 766 [2] = assay: CPE reduction assay (neutral red uptake); format: cell-based
Procedure: as §1

[3] = test system: Zika virus Malaysia P 6-740; assay: CPE reduction assay (neutral red uptake); format: cell-based
Procedure: as §1

[4] = test system: Zika virus (Malaysia, strain P 6-740); assay: Murine Zika virus model, treatment begun 1, 3, 5 or 7 dpi (Example 5); format: in vivo, AG129 mice; settings: for number of mice showing no disease signs: n=8; for weight change in grams between days 7 and 13 post-infection vs placebo: FIG. 10B
Procedure: Compound A was administered IM at 300 mg/kg/day in a volume of 0.05 ml saline.
Disease signs were assessed daily for each mouse and the date the disease sign was first noted was recorded. The graph represents the number of mice observed with each disease sign. […] As the time of administration of Compound A post-infection increased, the number of mice displaying no disease signs decreased (2 mice at 3 dpi, 1 mouse at 5 dpi and 0 mice at 7 dpi) and the total number of disease signs increased (13 disease signs at 3 dpi, 16 disease signs at 5 dpi and 23 disease signs at 7 dpi).

[5] = test system: Zika virus (Malaysia, strain P 6-740); assay: Murine Zika virus model, treatment begun 4 h before infection (Example 3); settings: for relative virus levels vs placebo: FIG. 4; for weight change in grams between days 7 and 13 post-infection: FIG. 3B
Procedure: The agents used in this experiment were compound A (the compound of formula I, where A is NH2 and B is H as the HCL salt) and ribavirin. Compound A was administered IM at 150 mg/kg/day and 300 mg/kg/day, each in a volume of 0.05 ml saline and ribavirin was administered IP at 75 mg/kg/day and 50 mg/kg/day, each in a volume of 0.1 ml saline. IM or IP administration of the daily dose was accomplished in two IM/IP injections of one-half the daily dose each. Mice were administered the first dose of Compound A and ribavirin 4 hours prior to infection with Zika virus and continued the treatment for 8 days post-infection.
In this experiment, Zika virus (Malaysia, strain P 6-740) was administered at a challenge dose of 100 CCID50 (10^3 pfu) per mouse via subcutaneous injection in a 0.1 ml volume.
Mice were monitored for survival 28 days post-virus challenge. Weight change for individual mice were taken on day 0 and every other day through the end of the experiments. Mice were observed daily for signs of disease including conjunctivitis, hunching, and limb weakness or paralysis.
For Zika virus infection and antiviral treatment studies, mice were randomly assigned to groups of 10 animals each. A 10^-3 dilution (10^4.0 pfu/mL) of the virus was prepared in MEM. Mice were challenged s.c. with 0.1 mL of the diluted virus (˜10^3.0 pfu/animal). All compound dosages were based on an average mouse weight of 22 g. Compounds were prepared in sterile saline less than 18 hours prior to initial administration in mice and stored at 4° C. for the duration of the study. Compound A was administered i.m., twice daily (bid) at 300 or 150 mg/kg/d. Ribavirin was given i.p., bid at 75 or 50 mg/kg/d. Treatments began 4 hours prior to virus challenge and continued for 8 days. The identity of the treatment groups was blinded to the technician administering treatments. Mortality was observed twice daily for 28 days, and the weight of each mouse was recorded on day 0 and then every other day from 1-19 days post-virus infection (dpi). Mice were humanely euthanized if they could no longer right themselves or were unresponsive to stimuli.
Fifty to 100 mg of freshly isolated tissue was ground with a pestle in 1 mL TRI Reagent (Sigma-Aldrich, St. Louis, MO) and total RNA was extracted. For the extraction of viral RNA from liquid samples, QlAamp Viral RNA Mini Spin kit was used according to the manufactures instructions (Qiagen, Valencia, CA). Extracted RNA was eluted with nuclease-free water and was amplified by a quantitative real-time RT-PCR using the Logix Smart Zika Test developed by Co-Diagnostics, Inc. (Bountiful, UT). Five μL of the master mix containing a set of primers and Rapid Probe, labeled with a FAM fluorophore and DABCYL quencher, was mixed with 2-5 μL of RNA and an appropriate volume of water for a final reaction volume of 10 μl. RNA was first reverse transcribed for 10 minutes at 55° C., followed by strand separation by heating to 95° C. for 20 seconds. The PCR reaction consisted of 40 cycles at 95° C. for 1 second and 55° C. for 20 seconds. A standard curve was generated with a synthetic RNA spanning the region of amplification and it was used to calculate the number of genome equivalents of the unknown samples.

[6] = test system: Zika virus Puerto Rico PRVABC59; assay: Virus yield reduction (VYR) assay; format: cell-based; settings: Puerto Rico PRVABC59
Procedure: as §1

Zika virus Uganda MR 766 [7] = assay: Virus yield reduction (VYR) assay; format: cell-based
Procedure: as §1

[8] = test system: Zika virus Malaysia P 6-740; assay: Virus yield reduction (VYR) assay; format: cell-based
Procedure: as §1

Cl.Nc1ncnc2c([C@@H]3N[C@H](CO)[C@@H](O)[C@H]3O)c[nH]c12 [Compound A]
CPE red. assay EC50 ([1]; Huh-7 cells): 4.7 ± 0.6 µg/mL | CPE red. assay EC50 ([1]; RD cells): 4.7 ± 2.2 µg/mL | CPE red. assay EC50 ([1]; Vero76 cells): 3.8 ± 2.5 µg/mL | CPE red. assay EC50 (Zika virus Uganda MR 766 [2]; Huh-7 cells): 5.7 ± 0.9 µg/mL | CPE red. assay EC50 (Zika virus Uganda MR 766 [2]; RD cells): 4.4 ± 1.3 µg/mL | CPE red. assay EC50 (Zika virus Uganda MR 766 [2]; Vero76 cells): 11.7 ± 4.7 µg/mL | CPE red. assay EC50 ([3]; Huh-7 cells): 5.5 ± 0.1 µg/mL | CPE red. assay EC50 ([3]; Vero76 cells): 11.5 ± 4.4 µg/mL | time of first administration at which treatment is effective ([4]; 300 mg/kg/day IM): up to 5 days post-infection | survival vs placebo ([4]; 300 mg/kg/day IM bid x 8 days, begun 1 dpi, p≤0.001): statistically significant improvements in survival | viral RNA levels in serum on day 5 post-infection ([4]; 300 mg/kg/day IM, begun 1, 3, 5 or 7 dpi, FIG. 10C): not significantly decreased | total number of disease signs ([4]; 300 mg/kg/day IM, begun 1 dpi): 6 disease signs | number of mice showing no disease signs ([4]; 300 mg/kg/day IM, begun 1 dpi): 6 mice | weight change in grams between days 7 and 13 post-infection vs placebo ([4]; 300 mg/kg/day IM, begun 1 dpi, p≤0.001): statistically significant decrease in weight loss | percent weight change ([4]; 300 mg/kg/day IM, begun 1 dpi, through 27 dpi, FIG. 10A): essentially no weight change | mortality curve and survival vs placebo ([4]; 300 mg/kg/day IM, begun 3 dpi): delayed the mortality curve of infected mice and increased survival | total number of disease signs ([4]; 300 mg/kg/day IM, begun 3 dpi): 13 disease signs | percentage weight loss ([4]; 300 mg/kg/day IM, begun 3 dpi, FIG. 10A): statistically significant decreases in percentage weight loss | number of mice showing no disease signs ([4]; 300 mg/kg/day IM, begun 3 dpi): 2 mice | weight change in grams between days 7 and 13 post-infection vs placebo ([4]; 300 mg/kg/day IM, begun 3 dpi, p≤0.001): statistically significant decrease in weight loss | mortality curve and survival vs placebo ([4]; 300 mg/kg/day IM, begun 5 dpi): delayed the mortality curve of infected mice and increased survival | total number of disease signs ([4]; 300 mg/kg/day IM, begun 5 dpi): 16 disease signs | percentage weight loss ([4]; 300 mg/kg/day IM, begun 5 dpi, FIG. 10A): statistically significant decreases in percentage weight loss | number of mice showing no disease signs ([4]; 300 mg/kg/day IM, begun 5 dpi): 1 mouse | total number of disease signs ([4]; 300 mg/kg/day IM, begun 7 dpi): 23 disease signs | number of mice showing no disease signs ([4]; 300 mg/kg/day IM, begun 7 dpi): 0 mice | relative virus levels vs placebo ([5]; 150 mg/kg/day IM (group 3)): decreased viral levels in a statistically significant manner | survival ([5]; 150 mg/kg/day IM bid x 8 days, begun -4 h (group 3)): all died by day 27 post-infection | mortality curve vs placebo ([5]; 150 mg/kg/day IM bid x 8 days, begun -4 h (group 3), p<0.001): delayed the mortality curve | percent weight change ([5]; 150 mg/kg/day IM, Zika infected (group 3), FIG. 3A): modest weight reduction starting around day 15 post-infection | weight change in grams between days 7 and 13 post-infection ([5]; 150 mg/kg/day IM): weight change similar to that seen in normal controls | morbidity in surviving mice 28 days post-infection ([5]; 300 mg/kg/day IM (group 1)): no morbidity was observed | weight change in grams between days 7 and 13 post-infection ([5]; 300 mg/kg/day IM (group 1)): weight change similar to that seen in normal controls | relative virus levels vs placebo ([5]; 300 mg/kg/day IM (group 1)): decreased viral levels in a statistically significant manner | mice survived to day 28 post-infection ([5]; 300 mg/kg/day IM bid x 8 days, begun -4 h (group 1), p<0.0001 vs placebo): 7/8 | morbidity or mortality at day 28 in sham-infected mice ([5]; 300 mg/kg/day IM bid x 8 days, sham infection (group 2)): No morbidity or mortality | percent weight change ([5]; 300 mg/kg/day IM, Zika infected (group 1), FIG. 3A): weight change similar to that seen in normal controls | percent weight change in sham-infected mice ([5]; 300 mg/kg/day IM, sham infection (group 2), FIG. 3A): weight change similar to that seen in normal controls | VYR assay EC90 ([6]; Huh-7 cells): 6.7 ± 1.2 µg/mL | VYR assay EC90 ([6]; RD cells): 10.0 ± 2.2 µg/mL | VYR assay EC90 ([6]; Vero76 cells, virus harvested 5 dpi, 1 log10 CCID50 reduction): 18.2 ± 2.7 µg/mL | VYR assay EC90 (Zika virus Uganda MR 766 [7]; Huh-7 cells): 6.4 µg/mL | VYR assay EC90 (Zika virus Uganda MR 766 [7]; RD cells): 5.4 ± 1.1 µg/mL | VYR assay EC90 (Zika virus Uganda MR 766 [7]; Vero76 cells): 8.7 µg/mL | VYR assay EC90 ([8]; Huh-7 cells): 4.9 ± 0.9 µg/mL | VYR assay EC90 ([8]; Vero76 cells): 13.8 ± 3.7 µg/mL
